Test results reported in patent publication US20120079993A1, “B[…]” (UNIVERSITY OF DURHAM, priority 2010, published 2012).

Key:
Balb/c mice = assay: Open space anxiety test: elevated platform with steep slopes; conditions: amphetamine 5 and 10 mg/kg vs diazepam 0.5, 1 and 3 mg/kg
mouse or rat = assay: Elevated platform at 75 cm height: falling from the platform and locomotion; type: in vivo; conditions: 0.2 mg/kg i.p.; platform at 75 cm height
Excerpt: Most mice and rats do jump onto the ground when the platform is raised by 50 cm but not when it is raised by about 75 cm. […] If a manipulation does induce jumping onto or falling on the ground, the experiment cannot be continued with the group of animals displaying this behaviour. Lower the doses if using drugs. One can prevent animals from sliding from the platform by using a ledge (not higher than 0.5 cm height) on each side adjacent to the void space. […] At 100 cm height, the test is more anxiogenic (3) and it is likely to cancel its sensitivity to experimental manipulations. Because of animal welfare regulations, it is advised that a soft carpet (polyethylene foam map about 3-5 cm thick) is laid on the ground beneath the slopes. It is preferable that it is grey or dark unicolor and covers all the visible areas of the floor within the curtain perimeter that surrounds the test apparatus.

Row | SMILES | number of crossings on the platform (motor activity) in amphetamine treated mice compared to diazepam treated mice (Balb/c mice) | number of crossings on the platform (motor activity) in amphetamine treated mice compared to diazepam treated mice (Balb/c mice; listed as Amphetamine) | effect on locomotion (mouse or rat) | falling from the platform (mouse or rat)
1 | CC(N)Cc1ccccc1 (stereo not shown) [amphetamine] | double | at least two-fold |  | 
2 | C[C@]12N[C@H](Cc3ccccc31)c1ccccc12 [MK-801] |  |  | induced uncoordinated, unsteady locomotion | falling from the platform
